Test results published in paper PMC3335822 (PLoS ONE, 2012).

Columns and labels:
Eya3(ED) = target: T1, Eya3(ED) (Mus musculus, UniProt P97480); test: pNPP hydrolysis by the catalytic domain of Eya3; assay type: biochemical
T1 construct: The catalytic domain (ED) of mouse Eyes Absent 3 (Eya3(223–510)) was purified; made in house
T1 sequence (P97480 223-510): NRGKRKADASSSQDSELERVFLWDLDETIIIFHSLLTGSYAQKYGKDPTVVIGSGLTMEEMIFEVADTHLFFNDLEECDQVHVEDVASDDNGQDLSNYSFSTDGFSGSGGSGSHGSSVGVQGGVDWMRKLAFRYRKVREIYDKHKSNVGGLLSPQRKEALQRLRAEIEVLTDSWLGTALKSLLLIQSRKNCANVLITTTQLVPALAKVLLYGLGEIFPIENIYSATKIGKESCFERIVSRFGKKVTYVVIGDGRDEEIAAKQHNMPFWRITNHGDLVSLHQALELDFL
Description: The catalytic domain (ED) of mouse Eyes Absent 3 (Eya3(223–510)) was purified as described before. Human Eyes Absent 3 isoform 2 (representing the major species identified in human cell lines by mass spectrometry and residues 127–573 of NM_001990, isoform 1) was sub-cloned into pDEST565 to express a poly-histidine- Glutathione-S-transferase (His-GST) tagged fusion protein with a TVMV protease site. The protein was purified by glutathione-S-transferase affinity chromatography followed by TVMV cleavage, Ni-NTA chromatography, and finally size exclusion chromatography.
The NCI Diversity Set II was obtained from the NCI in 96-well trays from the NIH Molecular Libraries Program and stored as 10 mM stocks in DMSO. An initial manual screen was conducted using the previously described p-nitrophenylphosphate assay and mouse Eya3(223–510) in a reaction mixture containing 20 mM MES pH 6, 2 mM MgCl2, 125 μM inhibitor, 3.4 mM para-nitrophenol phosphate (pNPP) and 0.01 μg/µL enzyme.
Compounds were dissolved in DMSO and diluted as needed. […] Reactions were incubated at 30°C for 30 minutes and quenched with 100 mM EDTA pH 10. IC50 values were then calculated directly from regression curves using PRISM. All reported values are the mean of two independent experiments.

MCF10A-EYA2 cells = test: Transwell migration of MCF10A cells over-expressing EYA2; assay type: cell-based; settings: for effect on migration of MCF10A(EYA2) cells: 7.5 μM
Experimental: (§1) Human umbilical vein endothelial cells (HUVECs) were purchased from Lonza (Walkersville, MD) and maintained in the endothelial cell growth medium (PromoCell, Heidelberg, Germany), under a 5% CO2 atmosphere. MCF10A cells from ATCC were stably transfected with either pcDNA 3.2/V5-DEST (vector control), V5-EYA2 or V5-EYA2(mut). Transwell migration experiments were performed as previously described.

HUVECs [1] = test: HUVEC transwell migration; assay type: cell-based, human; settings: 5 μM
Experimental: as §1

HUVECs [2] = test: HUVEC tubulogenesis assay on Matrigel; assay type: cell-based, human; settings: for effect on tubulogenesis, in words: up to 7.5 μM
Experimental: Tubulogenesis assays were performed in 15-well micro-slide (ibidi LLC, Verona WI), using growth factor-reduced matrigel (BD Bioscience, Billerica, MA). The matrix was prepared by loading 10 μl of matrigel in each micro-slide well and allowing it to solidify for 30 minutes at 37°C. HUVECs were trypsinized and resuspended at 100,000 cell/ml in EBM +2.5% FBS. 50 μl (5,000 cell) were loaded on top of the solidified matrigel and the preparation was incubated for 20 hours at 37°C in a humidified incubator in a 5% CO2 atmosphere. Bright field images were taken using an inverted microscope at 2.5× magnification, which allowed imaging of the whole well in two pictures that were later merged in Photoshop. Tubular structures were traced and counted using NeuroJ (NIH, USA). In experiments with inhibitor, the inhibitor was added to the cell suspension before loading. Each sample was loaded in triplicate, and each treatment was repeated for reproducibility.

mouse aortic rings = test: Mouse aortic ring assay (ex vivo sprouting angiogenesis, VEGF-stimulated); settings: 5 μM, 10 days
Experimental: The preparation of rat collagen and the aortic ring assay were carried out as previously described, [50]. Mice were 4 to 6 week old female C57BL/6, and aortic ring explants were cultured at 37°C in a humidified incubator under a 5% CO2 atmosphere.
Each inhibitor was serially diluted (between 0.25 mM and 7.5 mM) to stocks of 1000× the working concentrations in sterile 100% DMSO in order to achieve an equal final concentration of DMSO (0.1% v/v) in all culture conditions. For the experiments, the compounds were diluted in EBM containing 2.5% FBS, penicillin/streptomycin and 20 ng/ml VEGF165 (R&D Systems, Minneapolis, MN). Each compound was applied from the first day of culture over a 10-day period with medium change every two days. In all experiments, the vehicle (DMSO, 0.1%) was used as control. The sprouting density was derived from counting the number of branches per ring, and the extent of angiogenic sprouting was estimated by measuring the total surface area covered by the vessels.

zebrafish embryos = test: Analysis of zebrafish vasculature, Tg(kdrl:EGFP) embryos; assay type: in vivo; settings: exposure from about 5 hpf, analysis at 28–30 hpf
Experimental: Tg(kdrl:EGFP)^s843 zebrafish line was used for vascular analysis. Embryos were maintained in fish water until the 50% epiboly stage (5.25 hpf) and were transferred into wells of 24-well plate containing the inhibitors in fish water. All incubation was performed at 28.5°C. The analysis for vascular defects was performed at the 28–30 hpf stages, and embryos were imaged using a fluorescence microscope.

[3] = cited from earlier work
[4] = test system: urate transporter SLC22A12 (URAT1); design: method as in PMID 21272127; settings: cited from earlier work
[5] = design: method as in PMID 20214587; settings: cited from earlier work
CYP2C9 = test system: CYP2C9; design: method as in PMID 20214587; settings: cited from earlier work

CCc1oc2ccccc2c1C(=O)c1cc(Br)c(O)c(Br)c1 [Compound 1, Benzbromarone]
mode of inhibition of Eya3(ED) (Eya3(ED); pNPP substrate titration): uncompetitive inhibitor
effect on migration of MCF10A(EYA2) cells (MCF10A-EYA2 cells): significantly inhibited cell migration
effect on HUVEC cell motility (HUVECs [1]): attenuated HUVEC cell motility
effect on tubulogenesis, in words (HUVECs [2]): effective only at the highest concentrations tested (7.5 μM)
effect on sprouting of aortic rings (mouse aortic rings): shorter sprouts and significantly lower microvascular density
effect on the developing vasculature (zebrafish embryos): significant reduction of intersegmental vessels even at the lowest dose tested (0.25 μM)
half-life [3]: about 3 hours
inhibition of URAT1 [4]: inhibition of the urate transporter SLC22A12 (URAT1)
hepatotoxicity [5]: reported hepatotoxicity
inhibition of CYP2C9 (CYP2C9): inhibit CYP2C9

CCc1oc2ccccc2c1C(=O)c1ccc(O)cc1 [Compound 1a, Benzarone]
IC50 (Eya3(ED); substrate pNPP 3.4 mM, pH 6, 30°C, 30 minutes): 19.2 µM
reduction of cell motility (MCF10A-EYA2 cells; 1 μM (lowest concentration tested), MCF10A-EYA2): over 50%
effect on migration of MCF10A(EYA2) cells (MCF10A-EYA2 cells): significantly inhibited cell migration
effect on HUVEC cell motility (HUVECs [1]): attenuated HUVEC cell motility
reduction in tube formation (HUVECs [2]; 2.5 μM): ~50%
effect on tubulogenesis, in words (HUVECs [2]): potently inhibited tubulogenesis in a dose-dependent fashion
effect on sprouting of aortic rings (mouse aortic rings): shorter sprouts and significantly lower microvascular density
effect on the developing vasculature (zebrafish embryos): reduced the number of intersegmental vessels, but were less potent
half-life [3]: about 3 hours
inhibition of URAT1 [4]: inhibition of the urate transporter SLC22A12 (URAT1)
hepatotoxicity [5]: reported hepatotoxicity
inhibition of CYP2C9 (CYP2C9): inhibit CYP2C9
